Test results as given in patent US4910021A, “Targeted enternal delivery system” (priority 1985, dated 1990).
Where two headings read alike, the source gives them in different places.

Columns and labels:
blood glucose = test: Hypoglycemia effect in rats after oral (coated capsules) or intraperitoneal insulin; format: in vivo, rat (Hebrew University strain male rats); design: AUC (area under the % glucose reduction versus time curve): unit not given beside the values; details: i.p., 4 iu, 15 iu kg^-1, rats
rats = details: intrajejunal injection in presence of Cetamacrogol 1000, rats; cited from earlier work
[1] = rectal, dogs, cited from earlier work

For “insulin: porcine insulin Leo Neutral 100 iu ml^-1 (Nordisk Gentofte); i.p. 4 iu neutral insulin”, the “AUC (area under the % glucose reduction versus time curve)” value (blood glucose) was 258, the “Cmax (maximum % glucose reduction)” value (blood glucose) was 58% and the “tmax (time of the maximum effect)” value (blood glucose) was 2 h. The hypoglycemia (rats) was “significant hypoglycemia”, the bioavailability ([1]; before improvement by post-administration of promoter) was 19.4% and the bioavailability ([1]; with post-administration of promoter (enamine)) was 38.2%.
